Assay results reported in ChEMBL document CHEMBL3507680, “University of Dundee, Gates Library screen for HepG2 cell viability”.

Experiment: Human HepG2 cell viability assay in 384 well format
Type: toxicity, cell-based
Parameters: dose 125 nL, time 70.5 hour; cytotoxicity at 70.5 h: concentration not given beside the values
Settings: HepG2 cells, read-out: Inhibition
For O=C(CC1CC1)N1CCCC2(CCC(=O)N2CC2CC2)CC1 (stereo not drawn), the cytotoxicity at 70.5 h was -8.2%.
Cc1noc(C)c1CN1CCCC2(CCN(C(=O)N3CCOCC3)C2)C1 (stereo not drawn) showed a cytotoxicity at 70.5 h of -8.84%.
Work on Cc1noc(C)c1CN1CCCC2(CCN(C(=O)C3CC3)C2)C1 (stereo not drawn) yielded a cytotoxicity at 70.5 h of -11.8%.
In the case of Cc1nc(CN2CCC3(CC2)NC(=O)CC3c2cccnc2)cs1 (stereo not drawn), the cytotoxicity at 70.5 h is reported as -8.17%.
Molecule O=C1COC2(CCN(Cc3ccco3)CC2)CN1Cc1cccnc1 has a cytotoxicity at 70.5 h of -7.11%.
Molecule CCC(=O)N1CC[C@H](O)[C@@H]1Cc1ccccc1 has a cytotoxicity at 70.5 h of -9.02%.
O=C([C@H]1CCCO1)N1CC[C@@H](O)[C@@H]1Cc1ccccc1 gave a cytotoxicity at 70.5 h of -8.36%.
COCCN1C(=O)CCC12CCN(C(=O)CNC(C)=O)CC2 showed a cytotoxicity at 70.5 h of -8.47%.
With CCN1CC2(CCCCN2C(=O)c2ccsc2)CC1=O (stereo not drawn) the cytotoxicity at 70.5 h was 2.62%.
Work on O=C1CC2(CCCCN2C(=O)c2ccccc2)CN1CC1CC1 (stereo not drawn) yielded a cytotoxicity at 70.5 h of 4.75%.
CC(=O)N1CCc2nc(N3CCCC3)nc(C)c2C1 gave a cytotoxicity at 70.5 h of -0.643%.
Cc1nc(N2CCOCC2)nc2c1CN(C(=O)C(C)C)CC2 gave a cytotoxicity at 70.5 h of 4.55%.
Cc1nc(N2CCCC2)nc2c1CCN(C(=O)N1CCCC1)CC2 gave a cytotoxicity at 70.5 h of -8.89%.
Molecule Cc1nc(N2CCCC2)nc2c1CN(C(=O)NC(C)C)CC2 has a cytotoxicity at 70.5 h of -3.45%.
CN(CC1CC1)c1ccc2ccc(C(=O)NCCc3ccccc3)cn12 showed a cytotoxicity at 70.5 h of -12.6%.
For c1cc(-c2ccc3c(c2)CCC32CCNCC2)ccn1, the cytotoxicity at 70.5 h was 26.1%.
Work on COCC(=O)N1CCc2nc(C(=O)N(C)C)sc2CC1 yielded a cytotoxicity at 70.5 h of 27.3%.
Cc1occc1C(=O)N1CCCC2(CCN(c3ccccc3)C2=O)C1 (stereo not drawn) showed a cytotoxicity at 70.5 h of 12.9%.
CCC(CC)C(=O)N1CCN(C)c2ncccc2C1 gave a cytotoxicity at 70.5 h of -2.64%.
In the case of CO[C@H]1CN(Cc2ccccc2F)[C@@H]2CCCO[C@H]12, the cytotoxicity at 70.5 h is reported as -1.13%.
For O=C(c1ccco1)N1CCCC2(CCN(CCN3CCCC3)C2=O)C1 (stereo not drawn), the cytotoxicity at 70.5 h was -3.97%.
O=C(Cc1cccnc1)N1CCC2(CCN(C3CCOC3)CC2)C1 (stereo not drawn) showed a cytotoxicity at 70.5 h of 20.9%.
Molecule O=C(c1ccccn1)N1CCc2ncnc(N3CCOCC3)c2CC1 has a cytotoxicity at 70.5 h of -5.19%.
Work on CC(C)CNC(=O)N1C[C@H]2CC[C@@]3(N=C(c4ccccc4)NC3=O)[C@H]2C1 yielded a cytotoxicity at 70.5 h of -0.00686%.
For COCCn1cnc(-c2nc(C(=O)N3CCOCC3)c3ccccn23)c1, the cytotoxicity at 70.5 h was 5.18%.
In the case of CC(=O)N1CCCC2(CN(Cc3ccccc3C(F)(F)F)CCO2)C1 (stereo not drawn), the cytotoxicity at 70.5 h is reported as -2.98%.
For CC(=O)N1CCCC2(CN(Cc3ccncc3)CCO2)C1 (stereo not drawn), the cytotoxicity at 70.5 h was -1.7%.
Molecule CC(C)n1cnc(-c2nc(C(=O)N3CCN(C)CC3)c3ccccn23)c1 has a cytotoxicity at 70.5 h of -2.41%.
Molecule CC(C)n1cnc(-c2nc(C(=O)N3CCCC3)c3ccccn23)c1 has a cytotoxicity at 70.5 h of -2.79%.
c1ccc(O[C@@H]2CC[C@H]3[C@H]2OCCN3Cc2ccsc2)nc1 showed a cytotoxicity at 70.5 h of 8.42%.
Work on O=C(C1CCOCC1)N1CCc2ncnc(-c3ccccc3)c2CC1 yielded a cytotoxicity at 70.5 h of 1.86%.
Molecule CCOc1ncnc2c1CCN(C(=O)c1cnccn1)CC2 has a cytotoxicity at 70.5 h of 1.88%.
Cc1cnc(N2CC[C@@H]3CN(CCC(C)C)S(=O)(=O)[C@@H]3CC2)nc1 showed a cytotoxicity at 70.5 h of -1.61%.
For O=C(c1ccnnc1)N1C[C@H]2CCC[C@@H](OCc3cccnc3)[C@@H]2C1, the cytotoxicity at 70.5 h was -3.26%.
Work on c1ccc(OCC2CC3(CCN(Cc4ccncc4)CC3)CO2)nc1 (stereo not drawn) yielded a cytotoxicity at 70.5 h of -18.6%.
In the case of O=S(=O)(C1CC1)N1CCC2(COCc3cnc(N4CCOCC4)nc32)C1 (stereo not drawn), the cytotoxicity at 70.5 h is reported as 4.94%.
For O=C(c1ccco1)N1CCC2(CCOC2)C1 (stereo not drawn), the cytotoxicity at 70.5 h was -13.3%.
Cc1nc(CN2CCCn3c(nc(Cn4ccnc4)cc3=O)C2)cs1 showed a cytotoxicity at 70.5 h of -21.2%.
CC(=O)N1CC[C@H]2OCC[C@@H](C(=O)N3CCCCO3)[C@@H]2C1 showed a cytotoxicity at 70.5 h of -20.9%.
Work on O=C([C@@H]1CCO[C@@H]2CCN(Cc3cccnc3)C[C@H]21)N1CCCCO1 yielded a cytotoxicity at 70.5 h of -13.8%.
For O=C1CC[C@H]2[C@H](CCN2C(=O)C2CCCO2)N1CCN1CCCC1 (stereo partly drawn), the cytotoxicity at 70.5 h was -21.6%.
O=C1CC[C@H]2[C@H](CCN2C(=O)C2CCCO2)N1Cc1ccncc1 (stereo partly drawn) showed a cytotoxicity at 70.5 h of 7.56%.
With c1cncc(OCc2noc3c2CN(Cc2ccoc2)CC3)c1 the cytotoxicity at 70.5 h was -15.9%.
Work on CC(=O)N1CC2(CCNCC2)c2cc(Cl)ccc21 yielded a cytotoxicity at 70.5 h of -6.66%.
Molecule Cn1cc(CN2CCc3c(CNC(=O)C4CC4)cncc3C2)cn1 has a cytotoxicity at 70.5 h of -1.11%.
For Cc1ccc(CN2CCC3(CC2)NC(=O)CC3c2ccccc2)s1 (stereo not drawn), the cytotoxicity at 70.5 h was -6.55%.
CC(=O)N1CCN(Cc2ccc(C)o2)CC2(CC(=O)N(C)C2)C1 (stereo not drawn) showed a cytotoxicity at 70.5 h of -4.13%.
O=C(C1CCC1)N1CCC2(CCCN2CC2CC2)CC1 gave a cytotoxicity at 70.5 h of -0.744%.
COc1cccc(CN2CCCC3(CCN(C(=O)N4CCCC4)C3)C2)c1 (stereo not drawn) showed a cytotoxicity at 70.5 h of -7.71%.
For CC(=O)N1[C@@H](C(=O)NCC2CC2)C[C@@H]2CN(Cc3nccs3)C[C@@H]21, the cytotoxicity at 70.5 h was -9.23%.
In the case of Cc1cccc(CN2CCC3(CC2)NC(=O)CC3c2ccccc2)n1 (stereo not drawn), the cytotoxicity at 70.5 h is reported as -7.81%.
O=C1CC(c2ccccc2)C2(CCN(Cc3nccs3)CC2)N1 (stereo not drawn) gave a cytotoxicity at 70.5 h of -9.09%.
CN1CCOCC12CCN(C(=O)C1CCC1)CC2 gave a cytotoxicity at 70.5 h of 1.58%.
